{"source": "patent US20260193668A1", "about": "“NOVEL PEPTIDES AND USE THEREOF FOR MODULATING PROTEIN ACCUMULATION” (UNIVERSITE TOULOUSE III - PAUL SABATIER, priority 2022, published 2026)", "key": {"[1]": {"tested_on": "M. truncatula roots", "assay": "Quantification of nodules on M. truncatula roots", "assay_type": "in vivo, Medicago truncatula", "conditions": "versus irrelevant peptide", "description": "(a) FRET-FLIM analysis of the interaction between cPEPnsp1-FAM and NSP1 (left) or NSP1ΔcPEP (right) in planta. (b) qRT-PCR quantification of NSP1 expression in M. truncatula roots treated with cPEPnsp1 or Scrambled cPEPnsp1. (c) GUS quantification of peptide-treated M. truncatula roots carrying the Pro NSP1-NSP1-GUS fusion. (d, e) Quantification of NSP1 expression in N. benthamiana leaves after infiltration of different constructs: ‘wild type’ i.e. version of NSP1 wherein the cPEP sequence has been deleted (NSP1 ΔcPEP) or version of NSP1 wherein the cPEP sequence has been replaced by an artificial sequence (NSP1 ΔcPEP-cPEPartificial), with an empty vector (control) or cPEPnsp1 or cPEPartificial. (f, g) Formation of lateral roots of M. truncatula WT seedlings, nsp1 or overexpressing NSP1, in response to cPEPnsp1 or Scrambled cPEPnsp1. (h, i) Quantification of nodules on roots of M. truncatula roots treated with an irrelevant peptide or cPEPskl. […]\nIn order to verify whether cPEPs can target any protein, the activity of 12 cPEPs targeting 12 different proteins for which antibodies were available was studied and validated in three different plant species. The question was whether the increase in the quantity of proteins observed after treatment with cPEP was sufficient to modulate plant development. […]"}, "[2]": {"tested_on": "A. thaliana seedlings", "assay": "Heat shock resistance test on A. thaliana seedlings", "assay_type": "in vivo, Arabidopsis thaliana", "conditions": "100 μM peptide, 45° C. for 45 min", "protocol": "(§1) (a, b) Length of primary roots of A. thaliana seedlings treated with a Scrambled cPEPdcl1 or with a cPEPdcl1. (c) Relative chlorophyll content of A. thaliana seedlings treated with the corresponding peptide. (d) Resumption of growth of A. thaliana seedlings after heat shock at 45° C. for 45 min and treated with the corresponding peptide. (e) Relative lesion area of A. thaliana seedlings infected with B. cinerea and treated with the indicated peptide. (f) Measurement of the flowering day of A. thaliana plants treated with the indicated peptides. (g, h) Flowering day of A. thaliana plants treated with an irrelevant peptide or a mixture of cPEPs (targeting EIN2, BR11, BAK1 and WUS). (i, j) Leaf area of A. thaliana plants treated with an irrelevant peptide or a mixture of cPEPs (targeting EIN2, BR11, BAK1 and WUS).\n(§2) N. benthamiana plants were treated by spraying the leaves 24 h before harvesting. For Luc assays, 100 μL of MS/2 liquid medium containing the peptides was added to each well. 5 μL of luciferin was added and luciferase activity was read 30 min later using a spectrophotometer. […] To quantify the protein level induced by cPEPs in Arabidopsis, rosettes were sprayed daily with 100 μM of peptide or its control for 5 days. […] Chlorophyll content was measured using the SPAD chlorophylometer (Konica Minolta). Leaf area was measured using ImageJ software. […]"}, "[3]": {"tested_on": "A. thaliana seedlings", "assay": "Length of primary roots of A. thaliana seedlings treated with cPEP", "assay_type": "in vivo, Arabidopsis thaliana", "conditions": "versus Scrambled cPEPdcl1", "protocol": "as §1\nThe work then focused on different A. thaliana proteins involved in different plant functions. […] 12:479-492, 2000), improved the viability of seedlings to heat shock (FIG. 7d). In parallel, several A. thaliana plant defence regulators were targeted, namely AGB1 (SEQ ID NO: 195), MAPKKK3 (SEQ ID NO: 187), JAR1 (SEQ ID NO: 192), MAPKKK5 (SEQ ID NO: 188), ABCG34 (SEQ ID NO: 194) and CPK3 (SEQ ID NO: 162). […] Next, several cPEPs were designed targeting different proteins involved in plant development by measuring the day of flowering. […]"}, "[4]": {"tested_on": "EIN2 mRNA", "assay": "Quantification by qRT PCR of EIN2 expression in treated plants", "assay_type": "in vivo, Arabidopsis thaliana", "conditions": "100 μM peptide", "protocol": "(§3) Quantification by qRT PCR of the expression of different genes in response to 100 μM of different peptides\n(§4) (a) Treatment of plants with the peptide AtCOI1alt1; (b) Treatment of plants with the peptide AtAP2alt1; (c) Treatment of plants with the peptide AtEIN2alt1 (d) Treatment of plants with the peptide AtCPK3alt1.\n(§5) Quantification of mRNAs was performed by qRT-PCR using appropriate primer pairs selected from the sequences: SEQ ID NOs: 367 to 374. Expression levels for the controls were set at 100. The primers used for the A. euteiches assays are described in Camborde et al (New Phytol. 233:2232-2248. 2022)."}, "[5]": {"tested_on": "EIN2", "assay": "Quantification of EIN2 by Western blot in A. thaliana leaves", "assay_type": "in vivo, Arabidopsis thaliana", "conditions": "A. thaliana leaves treated for 5 days with 100 μM peptide", "protocol": "(§6) (a) Schematic representation of a gene encoding altORFs producing altPEPs. (b) ORF ranking distribution of altPEPs detected by MS. (c) Frequency of altPEPs detected by MS by length ranges. (d) Main root length of A. thaliana seedlings treated with 100 μM peptide for 4 days. (e, f) Quantification of DCL1 expression by RT-qPCR (e) and Western blot using anti-DCL1 antibodies (f) in A. thaliana leaves treated for 5 days with 100 μM peptide. (g, h) Quantification of COI1, AP2, CPK3 (g) and EIN2 (h) by Western blot using specific antibodies in A. thaliana leaves treated for 5 days with 100 μM peptide.\n(§7) N. benthamiana plants were treated by spraying the leaves 24 h before harvesting. For Luc assays, 100 μL of MS/2 liquid medium containing the peptides was added to each well. 5 μL of luciferin was added and luciferase activity was read 30 min later using a spectrophotometer. All other assays were performed by spraying or watering the plants. To quantify the protein level induced by cPEPs in Arabidopsis, rosettes were sprayed daily with 100 μM of peptide or its control for 5 days. Leaves were harvested 6 h after the last treatment for western blot analysis. […] Chlorophyll content was measured using the SPAD chlorophylometer (Konica Minolta). Leaf area was measured using ImageJ software. […]"}, "[6]": {"tested_on": "AP2", "assay": "Quantification of AP2 by Western blot in A. thaliana leaves", "assay_type": "in vivo, Arabidopsis thaliana", "conditions": "A. thaliana leaves treated for 5 days with 100 μM peptide", "protocol": "as §6, §7"}, "[7]": {"tested_on": "AP2 mRNA", "assay": "Quantification by qRT PCR of AP2 expression in treated plants", "assay_type": "in vivo, Arabidopsis thaliana", "conditions": "100 μM peptide", "protocol": "as §3, §4, §5"}, "[8]": {"tested_on": "A. thaliana seedlings", "assay": "Main root length of A. thaliana seedlings treated with altPEP", "assay_type": "in vivo, Arabidopsis thaliana", "conditions": "A. thaliana seedlings treated with 100 μM peptide for 4 days", "protocol": "as §6\nTo study the biological roles of altPEPs, two types of altPEPs were studied: one well conserved among Brassicaceae, and corresponding to the altORF18 of the DCL1 gene (FIG. 3c), and another, corresponding to the first altORF of the COI1 gene, but not conserved among Brassicaceae. A. thaliana seedlings were treated with the peptide AtDCL1alt18 (SEQ ID NO: 224) and root development analysed, since dcl mutants show longer main roots (Park, W., et al. Curr. Biol. 12, 1484-1495 (2002))."}, "[9]": {"tested_on": "DCL1 mRNA", "assay": "Quantification of DCL1 expression by RT-qPCR in A. thaliana leaves", "assay_type": "in vivo, Arabidopsis thaliana", "conditions": "A. thaliana leaves treated for 5 days with 100 μM peptide", "protocol": "as §6, §5\nas §2, with “For Luc assays, 100 μL of MS/2 liquid medium containing the peptides was added to each well.” left out"}, "[10]": {"tested_on": "DCL1", "assay": "Western blot using anti-DCL1 antibodies in A. thaliana leaves", "assay_type": "in vivo, Arabidopsis thaliana", "conditions": "A. thaliana leaves treated for 5 days with 100 μM peptide", "protocol": "as §6, §7"}}, "data": [{"substance": "cPEPskl (TETVGHEDAS; cPEPskl)", "values": [{"measurement": "amount of nodules", "setting": "[1]", "value": "decrease"}]}, {"substance": "cPEPhsp101 (MQDMLNSLLCI; cPEPhsp101) [SEQ ID NO: 404, cPEP targeting the A. thaliana HSP101 protein]", "values": [{"measurement": "viability of seedlings to heat shock", "setting": "[2]", "value": "improved"}]}, {"substance": "cPEPdcl1 (SRAFGSVFFSGD; cPEPdcl1)", "values": [{"measurement": "primary root growth", "setting": "[3]", "value": "reduction"}]}, {"substance": "AtEIN2alt1 (MGCKYRRRCSFRV; AtEIN2alt1)", "values": [{"measurement": "EIN2 mRNA expression (qRT PCR)", "setting": "[4]", "value": "without detecting any change"}, {"measurement": "EIN2 protein level (Western blot)", "setting": "[5]", "value": "increase"}]}, {"substance": "AtAP2alt1 (MGISYLGLWETSLLRWI; AtAP2alt1)", "values": [{"measurement": "AP2 protein level (Western blot)", "setting": "[6]", "value": "increase"}, {"measurement": "AP2 mRNA expression (qRT PCR)", "setting": "[7]", "value": "without detecting any change"}]}, {"substance": "AtDCL1alt18 (MLMLNPPRHHGILQRPTCLSLLLTIRLWNP; AtDCL1alt18)", "values": [{"measurement": "root development (main root length)", "setting": "[8]", "value": "decrease in root development"}, {"measurement": "DCL1 mRNA expression (qRT-PCR)", "setting": "[9]", "value": "no effect"}, {"measurement": "DCL1 protein accumulation (Western blot)", "setting": "[10]", "value": "increased"}]}]}
